Measured values as given in a melting point compilation (Tetko et al.; mined from patent text by program, amines drawn as free bases though some values may be those of a salt).

SMILES | melting point [°C]
Cc1nnc(F)c(-c2c(F)cc(F)cc2F)c1-c1ccc2ccccc2c1 | 108 to 110
O=C/C=C/c1c(-c2ccc(F)cc2)n(CCc2ccccc2)c(=O)c2ccccc12 | 133 to 134
COc1ccc(-c2c(C(=O)N3CCOCC3)ccc3cc(Cl)ccc23)cc1OC | 157 to 159
O=C1CCc2c1sc1c2CCCC1 | 43 to 44
CCNc1cc(Oc2ccc(NC(=O)NC3Cc4ccc(Br)cc4C3)cc2)ncn1 (centres undefined) | 247
O=C(O)C1CC(=O)N(Cc2ccccc2)C1c1ccccc1 (centres undefined) | 169 to 171
Nc1nc2c(ncn2OCC(O)CCP(=O)(O)O)c(=O)[nH]1 (centres undefined) | > 315
N#C[C@@H]1CCC[C@H]2OC[C@@H](c3ccccc3)N12 | 81
NS(=O)(=O)c1ccc2c(c1)S(=O)(=O)NC(C1CCCCC1)N2 (centres undefined) | 252 to 254
Cc1ncc(Cn2c(NC3CCNCC3)nc3ccccc32)o1 | 227
O=C(Nc1ccc([N+](=O)[O-])cc1)C(=O)N1CCC(Cc2ccc(F)cc2)CC1 | 157 to 159
COC12CC(c3nnc(-c4cncc(Br)c4)o3)CN(C)C1Cc1cn(C)c3cccc2c13 (centres undefined) | 183 to 186
COC(=O)C1=C(S(=O)(=O)NC(=O)Nc2nc(OC)nc(OC)n2)CCC1 | 168 to 169
COc1cc(C(=O)N2CCC(CCN3CCC(C(=O)c4nc5ccccc5[nH]4)CC3)(c3ccc(Cl)c(Cl)c3)C2)cc(OC)c1OC (centres undefined) | 130 to 140
Nc1cc(Cl)cc(C(F)(F)F)c1N | 53
CN(C)c1c(C#N)c(C(F)(F)F)nn1-c1c(Cl)cc(C(F)(F)F)cc1Cl | 105 to 107
CC=C1CC2C3CCc4cc(OC)ccc4C3CCC2(C)C1=O (centres undefined) | 139 to 140
COc1cc2c(Nc3ccc(Oc4ccccc4)cc3)c(C#N)cnc2cc1OCCN1CCC(N2CCCCC2)CC1 | 141
COc1ccc(NC2=NC(C)(C)Cc3cc(OC)c4c(c32)CC(C)(C)O4)cc1 | 139 to 140
O=C(CCc1ccccc1)N[C@H](Cc1ccc(C(F)(F)F)c(F)c1)[C@@H](O)c1ccc(F)cc1 (racemic) | 126 to 127
O=C(O)COc1ccc(SCc2cc(-c3ccc(Cl)cc3)on2)c2c1CCC2 | 112 to 114
O=C(Nc1ccc(OC(F)(F)F)cc1)NC1CCN(S(=O)(=O)c2ccccc2)CC1 | 188 to 189
Cc1cccc2c(=O)c3cccc(CBr)c3oc12 | 171 to 172

SMILES | melting point [°C]
O=C1c2c(O)ccc(O)c2C(=O)c2c(NCCN3CCC(O)C3)ccc(NCCN3CCC(O)C3)c21 (centres undefined) | 197 to 199
O=C(Nc1ccc(-n2nc(C(F)(F)F)cc2C(F)(F)F)cc1)c1ccc(F)cc1C(F)(F)F | 178 to 179
N#Cc1cccc(-c2ccc3cc[nH]c(=O)c3c2)c1 | > 300
COc1cc(Nc2c(C#N)cnc3cc(-c4csc(C5OCCO5)c4)ccc23)c(Cl)cc1Cl | 234 to 236
CS(=O)(=O)N[C@H]1CC[C@H](Nc2nccc(-n3ncc4ccccc43)n2)CC1 | 270
COc1ccc(Cc2nc(C#N)c[nH]2)cc1 | 170 to 171
O=c1c2ccc(OCCN3CCCCC3)cc2oc2cc(OCCN3CCCCC3)ccc12 | 134
CSCC(C)Nc1nccc(-c2ccnc(Nc3cccc(F)c3)c2)n1 (centres undefined) | 104 to 107
Clc1ccc2[nH]nc(I)c2c1 | 198 to 199
Cc1cccc2c1N(CC(=O)N1CC3CCC(CC3)C1)C(=O)C(NC(=O)Nc1cccc(C(=O)O)c1)N=C2c1ccccc1F (centres undefined) | 197 to 204
O=C(Nc1ccc(F)cc1)N1CCCCN1 | 78.5 to 79.5
Cc1cc(N2CCNC(=O)N2)cc(Cl)c1SCc1ccc(Cl)cc1 | 165 to 167
CCNc1nc(Cl)nc2nc[nH]c12 | 237 to 239
CN(C)c1ccc(C(=O)C(F)(F)c2cccc(Cl)c2)cc1 | 104 to 108
CC(C)c1cccc(C(C)C)c1NC(=O)NCC1(O)CCc2ccccc21 (centres undefined) | 173 to 174
Nc1ccn(C2OC(CO)C(O)C2O)c(=O)c1Br (centres undefined) | 202 to 204
CC(=O)OC1CCC2(C)C(=CCC3C2CCC2(C=CCl)C(OC(C)=O)CCC32)C1 (centres undefined) | 155 to 156
CC(=O)NC[C@H]1CN(c2ccc(C(=O)c3cnc4ccccn34)cc2)C(=O)O1 | 218 to 220
COCN1CC(CN)c2c[nH]c3cccc(c23)C1=O (centres undefined) | 160 to 163
O=C(c1cccc(N2CC(=O)N(S(=O)(=O)c3ccc(Cl)cc3)C2=O)c1)N1CCOCC1 | 248 to 253
c1cncc(C2CCCCS2)c1 (racemic) | 49
CN(C)C(=NC(=Nc1ccccc1)N1CCOCC1)N(C)C | 115 to 119
O=C1c2ccccc2-n2cncc2[C@@H]2CCN12 | 195 to 197

More lines, now with the values ahead:

melting point [°C] | SMILES
202 to 205 | CCOc1c(C(=O)c2cccs2)cnc2[nH]ncc12
205 to 208 | CON1CCC2(CC1)OC(=O)C(c1cc(C)ccc1C)=C2O
147 to 148 | CCCc1c(OCCCCc2ccc3cc(OC)c(OC)cc3c2)ccc(C(=O)O)c1O
155 to 156 | COC(=O)C1=C(C)NC(=S)N(C(=O)Cc2ccccc2)C1c1cccc([N+](=O)[O-])c1 (centres undefined)
103 to 106 | CCN(CC)C(=O)Oc1cc(C(C)C)ccc1C1(O)C(=O)c2ccccc2C1=O
76 | COC(=O)CCC(=O)OC1CC(C)(C)N(O)C(C)(C)C1
135 to 137 | COC(=O)C(C)Oc1ncn(-c2cccc(C(F)(F)F)c2)n1 (centres undefined)
183 to 185 | CCCn1c(N)cc(=O)n1-c1ccccc1
151 to 156 | COC(=O)/C(=C/C1CCCCCC1)c1ccc(S(C)(=O)=O)c(C(F)(F)F)c1
83.3 | Cc1cc(C)cc(C(=O)N2CCC(N3CCC(OC(=O)c4cc(Cl)cc(Cl)c4)CC3)CC2Cc2ccccc2)c1 (centres undefined)
246 | CNNc1ccc(-c2ccc3c(=O)c(C(=O)O)cn(C4CC4)c3c2C)cn1
255 to 256 | CCc1ccccc1NC(=O)c1ccccc1SSc1ccccc1C(=O)Nc1ccccc1CC
92 to 93 | CCOC(=O)/C=C/c1ccc(OC(C)C)nc1Oc1ccc(Cl)cc1Cl
172 to 174 | COc1c(C)c2c(c(C(=O)O)c1C/C=C(\C)CCC(=O)O)C(=O)OC2
63 to 65 | N#Cc1ccc(OC[C@H](O)CO)cc1
122 to 127 | CCCCCCCCNc1c(Nc2ccc(CC(C)NC[C@H](O)COc3ccc(O)cc3)cc2)c(=O)c1=O (some centres undefined)
213 to 216 | COc1ccc2c(c1)CN(CCc1ccc(NC(=O)c3cccc4c(=O)c5cccc(OC)c5[nH]c34)cc1)CC2
194 to 195 | CCCC[C@H](NS(=O)(=O)c1ccc(Br)cc1)C(=S)Nc1ccc(CC(=O)O)cc1
161 to 163 | O=C(O)c1ccc(NCCc2ccc(F)cc2)cc1
108 | CCOC(=O)c1cc2cc(F)c(F)cc2nc1Cl
73 to 75 | COc1ccc(CCOc2ccc(NC(=O)c3cc(F)cc(N4CCOCC4)c3)c3ccccc23)cc1OC
92 to 95 | CCOC(=O)C(=CNc1ccc(C)cc1CO)C(=O)OCC
102 to 105 | CCCCn1c(=O)c(NC(=O)Nc2cc(CO)ccc2C(C)(C)C)c(-c2cccc(OC)c2)c2cccnc21
90 to 92 | CCc1cc2c(cc1CC)C(=O)C(Cl)=CC2=O
160 to 165 | Cc1c(N2C[C@H](CF)[C@H](N)C2)c(F)cc2c(=O)c(C(=O)O)cn(C3CC3)c12
145 to 148 | COc1c(Cl)ccc(-c2cc(N)c(Cl)c(C(=O)NOCC(C)C)n2)c1F
134 to 136 | CCOc1cc(C(CC(=O)OC)N2C(=O)c3cccc(N)c3C2=O)ccc1OC (centres undefined)

melting point [°C] | SMILES
168 to 174 | Cc1cccc(S(=O)(=O)N=CN(C)C)c1C#N
302 | COc1ccc(C(=O)Nc2ncc(Cl)cc2Cl)c2c1oc1ccccc12
98 to 100 | CCC(C)(CC)c1nnc(NC(=O)c2ccccc2)s1
141 to 146 | CCCCC=Cc1ccc(Cc2c(C)[nH]c3ccc(C(=O)OC)cc23)c(Cl)c1
119 to 121 | CCCOc1ccnc2c1c(C(C)=O)cn2S(=O)(=O)c1ccccc1
107 to 109 | Cc1ccc(C)c2c1OC(=O)C2c1ccc(C(C)C)cc1 (centres undefined)
100 to 101 | COCOc1c(C)cc(-c2ccc(C(=O)OC)cc2)cc1C
241 to 242 | Cc1c(Cc2cc(Cl)cc(Cl)c2)c(C(=O)O)nn1CCO
280 | Cc1ccc(C(=O)c2c(O)c3cc(C)ccc3[nH]c2=S)cc1
160 to 161 | Cc1cccc(COc2cccc(OCc3ccc4cc(F)ccc4n3)c2)c1OCC(=O)O
113 to 115 | CCN(CC)CCNC(=O)c1cc(Cl)c(N)cc1OC(C)C(C)=NO (centres undefined)
55.5 | CCOC(=O)c1nc(C)cc(C#N)c1C
126 to 128 | CCCOc1ccccc1-c1ccc(C(=O)OC)c(=O)[nH]1
169 to 172 | O=C(O)c1oc2ccccc2c1CCc1ccccc1
190 to 192 | COc1cc(OC)nc(NC(=O)NS(=O)(=O)c2cccc3c2SC(C)(C)C3)n1
62 to 64 | CCCCCCCCCCCCCCCCCCOc1cc(OCc2ccccc2)cc(C(=O)OC)c1
199 to 200 | O=C(O)c1cccc(-c2cccc(OCCc3ccc(Cl)cc3Cl)n2)c1
168 to 172 | CC(CO)N=C(c1ccccc1)c1cc(Cl)ccc1NC(=O)CN (centres undefined)
125 | CCCN(CCc1c[nH]c2ccc(F)cc12)C1COc2c(F)ccc(C(N)=O)c2C1 (centres undefined)
280 to 282 | CCCn1c(=O)c2[nH]c(-c3ccc4c(c3)OCCO4)nc2n(CCC)c1=O
34.5 to 35.5 | Cc1ccc(O)c(I)c1
64 to 67 | CC[C@H](C)[C@H](NC(=O)N(C)Cc1ccccn1)C(=O)N[C@@H](Cc1ccccc1)C[C@H](O)[C@H](Cc1ccccc1)NC(=O)OCc1cncs1
157 to 158 | O=C(O)c1cc(Cl)ccc1NC(=O)C(CS)Cc1ccccc1 (centres undefined)
168 to 169 | COc1ccc2c(c1)C(C(=O)Nc1ccc(C(C)C)cc1)CCC2 (centres undefined)
119 to 120 | CCc1nc2ccn(-c3ccccc3)n2c(=O)c1C(=O)O
187 | COc1ccc(C(=O)c2c(F)cccc2F)cc1CC(=O)O
